# Where a name gives a salt, the structure may show the parent alone. Read-outs that look alike come from different tables or passages of the source.
# Columns and labels:
# human CYP2C19 = human CYP2C19 (Homo sapiens, UniProt P33261); experiment: biochemical
# CYP3A4 = CYP3A4 (Homo sapiens, UniProt P08684); experiment: biochemical
# human CYP2C9 [1] = molecular target: T1, human CYP2C9 (Homo sapiens, UniProt P11712); experiment: biochemical
# human CYP2D6 = human CYP2D6 (Homo sapiens, UniProt P10635); experiment: biochemical
# Sequence of human CYP2D6 (P10635 whole entry): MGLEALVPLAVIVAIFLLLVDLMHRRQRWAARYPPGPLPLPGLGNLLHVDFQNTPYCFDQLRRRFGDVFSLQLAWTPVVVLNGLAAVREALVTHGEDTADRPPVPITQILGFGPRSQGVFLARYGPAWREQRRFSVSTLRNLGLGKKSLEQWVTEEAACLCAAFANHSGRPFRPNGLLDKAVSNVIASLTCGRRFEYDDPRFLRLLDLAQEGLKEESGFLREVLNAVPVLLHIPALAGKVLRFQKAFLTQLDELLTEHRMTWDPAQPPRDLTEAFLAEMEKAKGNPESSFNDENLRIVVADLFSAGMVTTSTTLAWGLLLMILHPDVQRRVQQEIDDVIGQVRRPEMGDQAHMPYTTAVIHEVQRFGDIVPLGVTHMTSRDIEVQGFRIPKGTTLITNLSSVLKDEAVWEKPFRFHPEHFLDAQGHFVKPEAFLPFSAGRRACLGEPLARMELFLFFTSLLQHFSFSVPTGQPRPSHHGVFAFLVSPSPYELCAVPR
# human CYP1A2 [2] = molecular target: T2, human CYP1A2 (Homo sapiens, UniProt P05177); experiment: biochemical
# T2 sequence (P05177 1-516): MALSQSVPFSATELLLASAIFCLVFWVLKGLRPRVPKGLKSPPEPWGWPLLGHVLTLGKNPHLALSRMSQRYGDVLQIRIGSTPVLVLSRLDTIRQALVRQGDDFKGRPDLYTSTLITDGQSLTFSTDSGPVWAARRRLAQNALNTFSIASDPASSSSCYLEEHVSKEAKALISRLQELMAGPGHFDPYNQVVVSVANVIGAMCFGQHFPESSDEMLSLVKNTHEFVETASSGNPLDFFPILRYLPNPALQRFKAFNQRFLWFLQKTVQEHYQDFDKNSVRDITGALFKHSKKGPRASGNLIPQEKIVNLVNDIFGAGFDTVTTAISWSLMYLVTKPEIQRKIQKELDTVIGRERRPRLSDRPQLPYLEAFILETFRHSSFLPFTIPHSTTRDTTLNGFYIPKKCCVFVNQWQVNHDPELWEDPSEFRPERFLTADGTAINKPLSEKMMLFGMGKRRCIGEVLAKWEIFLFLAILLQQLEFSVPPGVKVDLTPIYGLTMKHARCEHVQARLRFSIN
# [3] = molecular target: Photinus pyralis (firefly) luciferase (Photinus pyralis, UniProt P08659); experiment: biochemical; format: biochemical; set-up: Luciferase Efficacy: unit not given here
# Sequence of Photinus pyralis (firefly) luciferase (P08659 whole entry): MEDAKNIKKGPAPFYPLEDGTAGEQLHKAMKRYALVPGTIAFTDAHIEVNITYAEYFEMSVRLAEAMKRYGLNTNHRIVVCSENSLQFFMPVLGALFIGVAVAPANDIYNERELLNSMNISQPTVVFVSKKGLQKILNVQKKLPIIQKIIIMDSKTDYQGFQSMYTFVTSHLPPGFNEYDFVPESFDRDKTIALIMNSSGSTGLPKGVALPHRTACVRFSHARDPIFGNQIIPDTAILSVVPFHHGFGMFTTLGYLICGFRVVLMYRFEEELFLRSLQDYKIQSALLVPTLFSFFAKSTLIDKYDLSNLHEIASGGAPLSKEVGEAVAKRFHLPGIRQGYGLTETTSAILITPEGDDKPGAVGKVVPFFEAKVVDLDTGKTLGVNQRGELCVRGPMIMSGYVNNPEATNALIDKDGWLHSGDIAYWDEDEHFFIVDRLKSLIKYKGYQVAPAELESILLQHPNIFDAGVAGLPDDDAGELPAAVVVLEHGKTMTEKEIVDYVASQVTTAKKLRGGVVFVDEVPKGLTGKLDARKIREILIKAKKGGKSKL
# human CYP1A2 [4] = molecular target: T2, human CYP1A2
# human CYP2C9 [5] = molecular target: T1, human CYP2C9
# [6] = CYP2C19 IC50 (half-maximal inhibitory concentration)
# [7] = CYP3A4 IC50 (half-maximal inhibitory concentration)
# [8] = CYP2C9 IC50 (half-maximal inhibitory concentration)
# [9] = CYP2D6 IC50 (half-maximal inhibitory concentration)
# [10] = CYP1A2 IC50 (half-maximal inhibitory concentration)
# Sequence of human CYP2C19 (P33261 whole entry): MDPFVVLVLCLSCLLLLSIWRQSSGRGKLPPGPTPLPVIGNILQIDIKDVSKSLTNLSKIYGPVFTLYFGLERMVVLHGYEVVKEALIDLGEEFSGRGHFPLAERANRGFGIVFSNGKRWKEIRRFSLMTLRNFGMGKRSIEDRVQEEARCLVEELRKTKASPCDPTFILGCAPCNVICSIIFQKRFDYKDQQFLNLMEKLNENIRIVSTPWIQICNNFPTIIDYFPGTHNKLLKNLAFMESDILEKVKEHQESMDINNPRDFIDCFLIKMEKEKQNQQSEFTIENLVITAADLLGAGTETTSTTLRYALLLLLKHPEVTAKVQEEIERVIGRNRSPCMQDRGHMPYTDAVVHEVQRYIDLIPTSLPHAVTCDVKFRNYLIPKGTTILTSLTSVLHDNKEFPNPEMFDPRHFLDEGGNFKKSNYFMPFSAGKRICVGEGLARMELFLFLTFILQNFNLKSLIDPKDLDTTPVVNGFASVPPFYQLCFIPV
# Sequence of CYP3A4 (P08684 whole entry): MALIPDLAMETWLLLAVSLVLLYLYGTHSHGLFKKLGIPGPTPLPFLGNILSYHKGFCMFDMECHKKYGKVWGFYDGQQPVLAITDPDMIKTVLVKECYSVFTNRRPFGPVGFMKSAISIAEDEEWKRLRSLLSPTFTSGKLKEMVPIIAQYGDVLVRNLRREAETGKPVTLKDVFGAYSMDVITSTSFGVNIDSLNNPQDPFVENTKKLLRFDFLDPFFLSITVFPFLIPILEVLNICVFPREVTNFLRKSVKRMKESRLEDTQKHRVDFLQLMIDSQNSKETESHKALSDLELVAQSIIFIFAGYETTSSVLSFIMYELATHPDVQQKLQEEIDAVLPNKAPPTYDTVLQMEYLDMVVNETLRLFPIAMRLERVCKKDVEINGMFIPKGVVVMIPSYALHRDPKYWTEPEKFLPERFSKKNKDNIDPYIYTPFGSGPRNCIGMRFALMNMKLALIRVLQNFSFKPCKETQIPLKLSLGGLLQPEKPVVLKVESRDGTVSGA
# T1 sequence (P11712 whole entry): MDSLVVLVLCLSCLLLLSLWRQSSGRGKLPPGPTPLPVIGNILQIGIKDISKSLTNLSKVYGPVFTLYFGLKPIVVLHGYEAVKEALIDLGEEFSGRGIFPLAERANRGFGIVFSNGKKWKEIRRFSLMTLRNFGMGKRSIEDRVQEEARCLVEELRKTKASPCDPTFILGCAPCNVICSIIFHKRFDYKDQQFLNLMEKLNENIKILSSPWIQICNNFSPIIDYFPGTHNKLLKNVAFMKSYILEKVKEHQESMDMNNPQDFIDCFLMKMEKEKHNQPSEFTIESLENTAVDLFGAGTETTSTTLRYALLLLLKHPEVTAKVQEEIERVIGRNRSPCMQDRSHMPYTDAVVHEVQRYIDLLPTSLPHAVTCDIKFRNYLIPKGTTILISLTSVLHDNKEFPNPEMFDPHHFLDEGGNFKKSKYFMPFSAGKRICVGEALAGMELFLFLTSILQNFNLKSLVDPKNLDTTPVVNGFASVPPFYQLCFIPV
Compound,IC50 (human CYP2C19; [6]),IC50 (CYP3A4; [7]),IC50 (human CYP2C9 [1]; [8]),IC50 (human CYP2D6; [9]),IC50 (human CYP1A2 [2]; [10]),Luciferase IC50 (half-maximal inhibitory concentration) [3],IC50 (human CYP2C19; CYP2C19 IC50),IC50 (CYP3A4; CYP3A4 IC50),also measured
CCC(=O)O[C@H]1[C@H](O[C@@H]2[C@@H](C)[C@H](O[C@H]3C[C@@](C)(OC)[C@@H](O)[C@H](C)O3)[C@@H](C)C(=O)O[C@H](CC)[C@@](C)(O)[C@H](O)[C@@H](C)C(=O)[C@H](C)C[C@@]2(C)O)O[C@H](C)C[C@@H]1N(C)C [Erythromycin estolate],–,–,–,–,–,–,–,–,IC50 (human CYP2C19): 47.1 µM; IC50 (CYP3A4): 0.29 ± 0.04 µM; IC50 (human CYP2C9 [1]): 32.7 ± 12.3 µM; IC50 (human CYP2D6): 30.5 ± 9.76 µM; IC50 (human CYP1A2 [2]): 33.5 ± 11 µM; IC50 [3]: 55 µM
OC(Cn1cncn1)(c1ccc(F)cc1)c1ccccc1F (centres unmarked) [Flutriafol],1.63 µM,0.24 µM,0.77 µM,37 µM,35.7 µM,Inactive,–,–,–
c1ccc2sc(SN(C3CCCCC3)C3CCCCC3)nc2c1,–,–,–,–,–,–,15.6 µM,5.16 µM,IC50 (human CYP2C9 [1]; CYP2C9 IC50): 8.95 µM; IC50 (human CYP2D6; CYP2D6 IC50): 0.56 µM; IC50 (human CYP1A2 [2]; CYP1A2 IC50): 32.9 µM; Luciferase IC50 [3]: Inactive
CC(C)(C)C(=O)C(Oc1ccc(Cl)cc1)n1cncn1 (centres unmarked) [Triadimefon],1.92 µM,0.45 µM,11.3 µM,51.6 µM,37 µM,Inactive,–,–,–
CCOP(=S)(Oc1cnc(C(C)(C)C)nc1)OC(C)C (centres unmarked) [Tebupirimfos],–,–,–,–,–,–,0.62 µM,1.5 µM,IC50 (human CYP2C9 [1]): 1.79 µM; IC50 (human CYP2D6): 34.3 µM; IC50 (human CYP1A2 [2]; CYP1A2 IC50): 24 µM; Luciferase IC50 [3]: Inactive
CCCCN(CCCC)CC(O)c1cc(Cl)cc2c1-c1ccc(Cl)cc1/C2=C/c1ccc(Cl)cc1 (centres unmarked) [Lumefantrine],–,–,–,–,–,–,26.9 µM,16.8 µM,IC50 (human CYP2C9 [1]; CYP2C9 IC50): 16.2 µM; IC50 (human CYP2D6; CYP2D6 IC50): 0.69 µM; IC50 (human CYP1A2 [2]; CYP1A2 IC50): 14.8 µM; Luciferase IC50 [3]: Inactive
OC(Cc1ccccc1Cl)(Cn1nc[nH]c1=S)C1(Cl)CC1 (centres unmarked) [Prothioconazole],2.55 µM,8 µM,0.93 µM,47.5 µM,41.9 µM,–,–,–,IC50 [3]: 65.8 µM; Luciferase Efficacy [3]: 65.83 ± 4.46 (-26 ± 4) %
C[Si](Cn1cncn1)(c1ccc(F)cc1)c1ccc(F)cc1 [Flusilazole],0.06 µM,0.16 µM,2.28 µM,33 µM,27.9 µM,Inactive,–,–,–
CC(C)Nc1ccc(Nc2ccccc2)cc1 [N-Isopropyl-N'-phenyl-p-phenylenediamine],–,–,–,–,–,–,4.25 µM,17.3 µM,IC50 (human CYP2C9 [1]; CYP2C9 IC50): 0.97 µM; IC50 (human CYP2D6; CYP2D6 IC50): 9.04 µM; IC50 (human CYP1A2 [2]; CYP1A2 IC50): 35.5 µM; IC50 [3]: 34.2 µM; Luciferase Efficacy [3]: 34.17 ± 2.23 (-75 ± 7) %
COP(N)(=S)Oc1ccccc1C(=O)OC(C)C (centres unmarked) [Isocarbophos],0.13 µM,1.61 µM,5.11 µM,46.1 µM,1.14 µM,Inactive,–,–,–
"Cc1ccccc1NC(=N)Nc1ccccc1C [1,3-Bis(2-methylphenyl)guanidine]",–,–,–,–,–,–,1.11 µM,41 µM,CYP1A2 IC50 (human CYP1A2 [4]): Inactive; IC50 (human CYP2D6; CYP2D6 IC50): 0.01 µM; Luciferase IC50 [3]: Inactive
O=C1c2ccccc2C(=O)C1C(=O)C(c1ccccc1)c1ccc(Cl)cc1 (centres unmarked) [Chlorophacinone],11 µM,33.6 µM,0.76 µM,44.9 µM,8.52 µM,Inactive,–,–,AC50 (human CYP2C19; CYP2C19 AC50 (half-maximal activity concentration)): 11 µM; AC50 (CYP3A4; CYP3A4 AC50 (half-maximal activity concentration)): 33.6 µM; AC50 (human CYP2C9 [1]; CYP2C9 AC50 (half-maximal activity concentration)): 0.76 µM; AC50 (human CYP2D6; CYP2D6 AC50 (half-maximal activity concentration)): 44.9 µM; AC50 (human CYP1A2 [2]; CYP1A2 AC50 (half-maximal activity concentration)): 8.52 µM
OCc1c2ccccc2cc2ccccc12 [9-Anthracenemethanol],26.1 µM,29.8 µM,27.6 µM,60.1 µM,0.7 µM,–,–,–,IC50 [3]: 68.7 µM
CCCCCCCCCCCCN [Dodecylamine hydrochloride],–,–,–,–,–,–,0.47 µM,34.3 µM,IC50 (human CYP2C9 [1]; CYP2C9 IC50): 6.64 µM; IC50 (human CYP2D6; CYP2D6 IC50): 3.3 µM; IC50 (human CYP1A2 [2]; CYP1A2 IC50): 2.55 µM; Luciferase IC50 [3]: Inactive
CCN(CC)c1nc(C)cc(OP(=S)(OC)OC)n1 [Pirimiphos-methyl],0.19 µM,2.22 µM,–,–,1.49 µM,Inactive,–,–,IC50 (human CYP2C9 [1]): 23.6 µM; IC50 (human CYP2D6): 53.3 µM
Cc1ccc2ccc3cccc4ccc1c2c34 [1-Methylpyrene],–,–,–,–,–,–,31.8 µM,30.5 µM,IC50 (human CYP2C9 [1]; CYP2C9 IC50): 55.4 µM; IC50 (human CYP2D6; CYP2D6 IC50): 55.4 µM; IC50 (human CYP1A2 [2]; CYP1A2 IC50): 0.86 µM; IC50 [3]: 44.9 µM

Compound,IC50 (human CYP2C19; [6]),IC50 (CYP3A4; [7]),IC50 (human CYP2C9 [1]; [8]),IC50 (human CYP2D6; [9]),IC50 (human CYP1A2 [2]; [10]),Luciferase IC50 (half-maximal inhibitory concentration) [3],IC50 (human CYP2C19; CYP2C19 IC50),IC50 (CYP3A4; CYP3A4 IC50),also measured
C[C@H]1CCCC(=O)CCC/C=C/c2cc(O)cc(O)c2C(=O)O1 [Zearalenone],16.6 µM,0.12 µM,–,–,25.3 µM,Inactive,–,–,IC50 (human CYP2C9 [1]): 5.74 µM; IC50 (human CYP2D6): 46.5 µM
COC(=O)N(C(=O)N1CO[C@@]2(C(=O)OC)Cc3cc(Cl)ccc3C2=N1)c1ccc(OC(F)(F)F)cc1 [Indoxacarb],0.17 µM,2.61 µM,3.35 µM,14 µM,–,Inactive,–,–,CYP1A2 IC50 (half-maximal inhibitory concentration) (human CYP1A2 [4]): Inactive
Fc1ccc([C@]2(Cn3cncn3)O[C@H]2c2ccccc2Cl)cc1 (racemic) [Epoxiconazole],0.34 µM,0.91 µM,5.66 µM,37 µM,3.92 µM,Inactive,–,–,–
O=C1C2(Cl)C3(Cl)C4(Cl)C(Cl)(Cl)C5(Cl)C3(Cl)C1(Cl)C5(Cl)C24Cl (centres unmarked) [Kepone],–,–,–,–,–,–,0.87 µM,3.13 µM,IC50 (human CYP2C9 [1]): 6.47 µM; IC50 (human CYP2D6): 67.9 µM; IC50 (human CYP1A2 [2]; CYP1A2 IC50): 36.4 µM; Luciferase IC50 [3]: Inactive
CCOCn1c(-c2ccc(Cl)cc2)c(C#N)c(Br)c1C(F)(F)F [Chlorfenapyr],4.66 µM,37 µM,9.71 µM,33 µM,0.6 µM,Inactive,–,–,–
"Nc1ccc(N)c2c1C(=O)c1ccccc1C2=O [1,4-Diaminoanthraquinone]",24.7 µM,5.17 µM,–,33 µM,0.35 µM,–,–,–,IC50 [3]: 15.2 µM
"Cc1cc(O)c(C(C)(C)C)cc1Sc1cc(C(C)(C)C)c(O)cc1C [4,4'-Thiobis(6-tert-butyl-m-cresol)]",0.38 µM,7.29 µM,4.21 µM,24.4 µM,40 µM,Inactive,–,–,–
CCCN(CCOc1c(Cl)cc(Cl)cc1Cl)C(=O)n1ccnc1 [Prochloraz],0.05 µM,0.07 µM,0.81 µM,0.53 µM,0.22 µM,Inactive,–,–,–
N#CC(CCc1ccc(Cl)cc1)(Cn1cncn1)c1ccccc1 (centres unmarked) [Fenbuconazole],0.17 µM,0.05 µM,1.94 µM,38.6 µM,35.8 µM,Inactive,–,–,–
CC(C)(C)C(O)C(Oc1ccc(-c2ccccc2)cc1)n1cncn1 (centres unmarked) [Bitertanol],48.3 µM,0.67 µM,7.56 µM,63.5 µM,48.8 µM,Inactive,–,–,–
CCOP(=S)(OCC)Oc1cnc2ccccc2n1 [Quinalphos],–,–,–,–,–,–,0.47 µM,4.57 µM,IC50 (human CYP2C9 [1]): 0.91 µM; IC50 (human CYP2D6): 38.5 µM; IC50 (human CYP1A2 [2]; CYP1A2 IC50): 2.25 µM; Luciferase IC50 [3]: Inactive
CCOP(=S)(OCC)SCSP(=S)(OCC)OCC [Ethion],–,–,–,–,–,–,0.34 µM,0.97 µM,IC50 (human CYP2C9 [1]): 0.52 µM; IC50 (human CYP2D6): 37 µM; IC50 (human CYP1A2 [2]; CYP1A2 IC50): 19.6 µM; Luciferase IC50 [3]: Inactive
COc1cc(N)c(Cl)cc1C(=O)NC1CCN(Cc2ccccc2)CC1 [Clebopride maleate],–,–,–,–,–,Inactive,–,–,IC50 (human CYP2C19): 38.9 µM; IC50 (CYP3A4): 2.06 ± 0.47 µM; CYP1A2 IC50 (half-maximal inhibitory concentration) (human CYP1A2 [4]): Inactive; IC50 (human CYP2D6): 0.03 µM; CYP2C9 IC50 (half-maximal inhibitory concentration) (human CYP2C9 [5]): Inactive
COc1cccc(C(=O)NN(C(=O)c2cc(C)cc(C)c2)C(C)(C)C)c1C [Methoxyfenozide],3.43 µM,0.74 µM,18.1 µM,44 µM,–,Inactive,–,–,CYP1A2 IC50 (half-maximal inhibitory concentration) (human CYP1A2 [4]): Inactive
COc1ccc(C(O)(c2cncnc2)C2CC2)cc1 (centres unmarked) [Ancymidol],19.3 µM,0.8 µM,38.2 µM,47 µM,–,Inactive,–,–,CYP1A2 IC50 (half-maximal inhibitory concentration) (human CYP1A2 [4]): Inactive

# — article PMC12155096 (International Journal of Molecular Sciences, 2025)
